Data as given in publication PMC12207589, “Exploring Linear mono-, bis- and tris-Acetylene Containing Agonists of the Human Olfactory Receptor OR1A1” (Journal of Medicinal Chemistry, 2025).
Where “and” joins values, the source holds several entries; their conditions need not be identical. Identical values can stand only once. Entries after “also recorded” stand apart in the source; their conditions may differ.

How the values were obtained:
[1] = target: T1, human olfactory receptor OR1A1 (Homo sapiens, UniProt Q9P1Q5); assay: Dual-Glo luciferase assay of olfactory receptor activation (agonist dose-response); assay type: cell-based; settings: for EC50: OR1A1 response, best-fit value with 95% confidence interval, EC50 = ligand concentration for half-maximal response; for agonist activity / response of OR1A1 (in words): luciferase assay, normalized responses
T1 construct: expressed in transfected cells; host or cells: HEK293T-derived cells
T1 sequence (Q9P1Q5 1-309): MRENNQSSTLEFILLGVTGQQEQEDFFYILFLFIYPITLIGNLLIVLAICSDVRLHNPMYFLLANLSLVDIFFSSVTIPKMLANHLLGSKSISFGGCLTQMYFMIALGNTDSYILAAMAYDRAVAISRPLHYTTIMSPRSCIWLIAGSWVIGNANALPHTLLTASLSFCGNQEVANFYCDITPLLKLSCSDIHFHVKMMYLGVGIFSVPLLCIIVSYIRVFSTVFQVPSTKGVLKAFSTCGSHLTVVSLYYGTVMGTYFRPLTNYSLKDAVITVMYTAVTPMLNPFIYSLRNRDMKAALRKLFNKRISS
Procedure: Olfactory receptor activation was evaluated using the Dual-Glo Luciferase Assay System (Promega (Beijing) Biotech Co., Ltd., Beijing, China). HEK293T-derived cells were maintained in minimal essential medium (Sigma) containing 10% fetal bovine serum (Sigma) (M10), 500 µg/mL penicillin–streptomycin (Invitrogen), and 6 µg/mL amphotericin B (Sigma) in a 37 °C incubator with 5% CO2. After culturing to a desired confluence, the cells were plated on 96-well plates (Corning Inc., Kennebunk, ME, USA). For each 96-well plate, 1 μg of CRE-luciferase, 0.5 μg of pRL-SV40, 0.5 μg of OR, 0.5 μg of RTP1S, and 0.25 μg of M3R were transfected using the transfection reagent Lipofectamine2000 (Invitrogen, Life Technologies Corp., Carlsbad, CA, USA). Twenty-four hours post transfection, the transfection media were removed, and the cells were rinsed with 50 μL PBS buffer (pH 7.4) per well. The cells were then stimulated with 25 μL 1% (v/v) ligand samples diluted in CD293 stimulation medium (Gibco Brand, ThermoFisher Biochemical Products (Beijing) Co., Ltd., Beijing, China). Four hours post stimulation, firefly luciferase (FL) and Renilla luciferase (RL) activities were measured following manufacturer’s protocols, using a Synergy H1 plate reader (BioTek Instruments, Winooski, VT, USA). Normalized luciferase activity was calculated using the formula: FL/RLX-FL/RLXC, where FL/RLX is the response to the ligands, FL/RLXC is the basal value of the same OR. Each experiment was repeated at least 3 times and error bars indicate standard error mean. Data were analyzed with GraphPad Prism.

OR1A1 olfactory receptor = settings: cited from earlier work; for agonist quality on OR1A1 (in words): known OR1A1 agonists, Introduction and Figure 1, reference numbers not given; for EC50: enantiomers of citronellol on OR1A1, already reported, reference number not given

| EC50 [1] | agonist activity / response of OR1A1 (in words) [1] | SMILES | further results |
| --- | --- | --- | --- |
| 35.5 µM | activated OR1A1 | CC(=O)c1cccc(C#CC#CC(C)(C)C)c1 [compound 14] |  |
| 24 µM |  | C[C@H](O)C#CC#Cc1ccc(C(C)(C)C)cc1 [(S)-21] |  |
|  |  | CCCCCC(=O)C(C)C(C)=O (centres unmarked) [compound 9, 3-methyl-2,4-nonanedione] | agonist quality on OR1A1 (in words) (OR1A1 olfactory receptor): extremely potent agonist |
|  |  | C[C@@H]1CCCCCCCCCCCCC(=O)C1 [compound 1, muscone] | agonist quality on OR1A1 (in words) (OR1A1 olfactory receptor): very poor agonists |
|  | weakest agonist in this alcohol series | CC(C)(O)C#CC#Cc1ccc(C(C)(C)C)cc1 [compound 22] |  |
|  |  | CC(=O)c1c(C)c([N+](=O)[O-])c(C(C)(C)C)c([N+](=O)[O-])c1C [compound 2, musk ketone] | agonist quality on OR1A1 (in words) (OR1A1 olfactory receptor): very poor agonists |
|  |  | CC(C)=CCC[C@H](C)CCO [(S)-7, citronellol] | EC50 (OR1A1 olfactory receptor): 92.6 µM |
|  | not active | CC(C)(C)C#CC#Cc1ccc2c(c1)C(=O)CC2 [compound 16] |  |
| 7.45 µM and 7.41 µM | strongest agonist effect | C[C@@H](O)C#CC#Cc1ccc(C(C)(C)C)cc1 [(R)-21] |  |
|  |  | CC(C)=CCCC(C)CCO (centres unmarked) [compound 7, citronellol] | agonist quality on OR1A1 (in words) (OR1A1 olfactory receptor): good agonist |
|  |  | CC(C)=CCC[C@@H](C)CCO [(R)-7, citronellol] | EC50 (OR1A1 olfactory receptor): 82.5 µM |
|  | displayed a stronger response | CC(C)(C)C#CC#Cc1ccc2c(c1)COC2 [compound 18] |  |
|  | essentially inactive | CC(=O)C#CC#Cc1ccc(C(C)(C)C)cc1 [compound 15] |  |

| SMILES | EC50 [1] | agonist activity / response of OR1A1 (in words) [1] | further results |
| --- | --- | --- | --- |
| CC(C)(C)C#CC#Cc1cccc2c1CCC2=O [compound 17] |  | micromolar range potency with modest to good agonist efficacy |  |
| CC(=O)c1ccc(C#CC#CC(C)(C)C)cc1 [compound 13] | 36.3 µM | activated OR1A1 |  |
| CC(C)(C)c1ccc(C#CC#CCO)cc1 [compound 20] | 42.7 µM | strong agonist activity |  |
| CC(O)C#CC#Cc1ccc(C(C)(C)C)cc1 (centres unmarked) [compound 21] | 43.7 µM | much stronger interaction with the OR1A1 receptor than the corresponding ketone 15 |  |
| CC(=O)c1cccc(C#CC#CC#CC(C)(C)C)c1 [compound 19] |  | did not result in an active compound; also recorded: weak agonist |  |
